Measured values: patent publication US20240009277A1, “POLYPEPTIDES FOR USE IN THE TREATMENT AND PREVENTION OF NEURODEGENERATIVE DISEASES” (IMMUNE SYSTEM KEY LTD., priority 2020, published 2024)
Non-standard residues stand in square brackets, D forms with d. Residues, ends and D or L forms follow the SMILES beside them. No end group written: not given here.

Experiment: Blood Brain Barrier (BBB) penetration assay, ELISA of spinal fluid after I.P. injection
Format: in vivo, mice
Conditions: for level of the polypeptide in mice brain following injection: I.P. 60 mg/kg in 5% mannitol, spinal fluid collected after 1 hour, ELISA, compared to 5% mannitol control
Experimental: ICR female mice having initial body weight of 20-22 grams were used (Envigo).
A control group of 6 mice was injected intraperitoneally (I.P.) with 5% mannitol solution and another group of 6 mice was injected I.P. with the polypeptide dTCApFs (also termed herein Nerofe, at 60 mg/kg) in a 5% mannitol solution. Spinal fluid was collected after the injection (1 hour) and subjected to ELISA analysis of dTCApFs (Nerofe), as detailed below.
Mice were injected with 60 mg/kg D-amino acid dTCApFs (Nerofe), and cerebrospinal fluid (about 10 μl) and serum were collected after 1 hr, and frozen. A calibration curve was prepared by serial dilutions of the polypeptide in PBS (Biological industries, 02-023-5A) as noted in table 1 below.
Next, the cerebrospinal samples were thawed and kept on ice, and then diluted in 220 μl PBS. Sample loading was next performed by loading 100 μl duplicates of each sample and of the standard in a Maxisorp 96-wells plate (NUNC, F96 Maxisorp, 442404). The plate was sealed and incubated at 4° C. overnight with gentle shaking. The plate was washed by removing the liquid and washing the plate four (4) times using a multi-pipette or an automated washer with 300 μl 0.05% TW-20 (Amresco, 0777-1L) in PBS. The samples were blocked by diluting 5% BSA (MP biomedicals, 160069) in PBS. Then, 300 μl of the blocking buffer were loaded in each well and the plate was incubated at room temperature (R.T.) for 1 hour with gentle shaking. The Plates were washed again, as described above.
Detection was performed by diluting the first antibody according to table 1 below in diluent (0.05% TW-20, 0.1% BSA in PBS). Then, 100 μl of detection antibody were loaded into each well and the plate was incubated at R.T. for 2:00 hours with gentle shaking. The plate was washed again as detailed above. […]
Development was performed by adding 100 μl TMB (Milipore, ES001-500ML) to each well, and waiting for blue color development, then adding 100 μl 2N H2SO4 (Frutarom, 5552540). Plate reading was performed in a microplate reader, by checking the wells absorbance at 450 nm. […]

Row | Molecule | level of the polypeptide in mice brain following injection | penetration ability of the BBB (mice, I.P. 60 mg/kg)
1 | CC(C)C[C@@H](NC(=O)[C@H](NC(=O)[C@@H](CO)NC(=O)[C@H]1CCCN1C(=O)[C@@H](CC(C)C)NC(=O)[C@@H](Cc1ccccc1)NC(=O)[C@@H](Cc1ccccc1)NC(=O)[C@H](NC(=O)[C@@H](Cc1c[nH]c2ccccc12)NC(=O)[C@H](N)Cc1c[nH]c2ccccc12)[C@H](C)O)[C@H](C)O)C(=O)N[C@H](Cc1c[nH]c2ccccc12)C(=O)N[C@H](CCC(=O)O)C(=O)N[C@H](CCCNC(=N)N)C(=O)N[C@H](CCCCN)C(=O)O [dTCApFs, Trp Trp Thr Phe Phe Leu Pro Ser Thr Leu Trp Glu Arg Lys] (H-[dW][dW][dT][dF][dF][dL][dP][dS][dT][dL][dW][dE][dR][dK]-OH; N-terminus and C-terminus assumed) | dramatically increased | good penetration ability of the BBB
2 | WWTFFLPSTLWERK [L-amino acid polypeptide, Trp Trp Thr Phe Phe Leu Pro Ser Thr Leu Trp Glu Arg Lys, reference compound] | changed insignificantly | –
